The record followed here is paper PMC3731320, “Identification of Benzimidazole Diamides as Selective Inhibitors of the Nucleotide-Binding Oligomerization Domain 2 (NOD2) Signaling Pathway” (PLoS ONE, 2013).

The term IC50 denotes the concentration at which inhibition is half-maximal.

In one assay the test system is HCT116 cells. Nature of the assay: Uptake of MDP-rhodamine by HCT116 cells (fluorescence microscopy). It is filed as cell-based, human. Particulars: GSK669 up to 20 μM, chlorpromazine 20 μM, 1–4 hour. Here is the method:
HCT116 cells seeded onto glass cover-slips at low density were pre-treated with GSK669 or the endocytosis inhibitor chlorpromazine for 30 minutes before addition of 2.5 μg/mL MDP-rhodamine. Live cells were viewed periodically over 6-hours incubation at 37 °C using a Nikon eclipse TE2000-E fluorescent inverted microscope fitted with a CCTV camera and rhodamine filter.
With `CN(C)CCCN1c2ccccc2Sc2ccc(Cl)cc21` [chlorpromazine, reference compound], the “effect on uptake of Rhodamine-MDP into cells” value is reported as “intracellular punctate fluorescence did not develop”.

A further assay relates to NOD2. The experiment in a line: MDP-stimulated IL-8 release in 293/hNOD2 cells (HTRF). It counts as cell-based, human. Particulars: Homo sapiens; MDP-stimulated IL-8 production assay in 293/hNOD2 cells; Figures 4 and 5; read-out: NOD2 IC50. Here is the method:
After 24 hours the amount of IL-8 secreted into the medium was determined by homogeneous time resolved fluorescence (HTRF) assay by the direct addition of a 1:1 mix of europium cryptate and XL665-conjugated anti-IL-8 antibodies according to the manufacturer's instructions (Cisbio).
For `Cc1ccccc1C(=O)NCCc1nc2ccccc2n1CC(=O)Nc1ccc2c(c1)CCC2` [Compound 17, N-(2-(1-(2-((2,3-dihydro-1H-inden-5-yl)amino)-2-oxoethyl)-1H-benzo[d]imidazol-2-yl)ethyl)-2-methylbenzamide], the IC50 is 4.7 ± 0.5 µM. Same read-out and setting: the same measure for `Cc1ccc(C(=O)NCCc2nc3ccccc3n2CC(=O)Nc2ccc3c(c2)CCC3)cc1` [Compound 18, N-(2-(1-(2-((2,3-dihydro-1H-inden-5-yl)amino)-2-oxoethyl)-1H-benzo[d]imidazol-2-yl)ethyl)-4-methylbenzamide]: above 50 µM. Still for that read-out and setting: the same measure for `O=C(Cn1c(CCNC(=O)c2ccc(Cl)c(Cl)c2)nc2ccccc21)Nc1ccc2c(c1)CCC2` [Compound 19, 3,4-dichloro-N-(2-(1-(2-((2,3-dihydro-1H-inden-5-yl)amino)-2-oxoethyl)-1H-benzo[d]imidazol-2-yl)ethyl)benzamide]: above 50 µM; for `O=C(Cn1c(CCNC(=O)c2cccc(C(F)(F)F)c2)nc2ccccc21)Nc1ccc2c(c1)CCC2` [Compound 20, N-(2-(1-(2-((2,3-dihydro-1H-inden-5-yl)amino)-2-oxoethyl)-1H-benzo[d]imidazol-2-yl)ethyl)-3-(trifluoromethyl)benzamide]: above 50 µM; for `Cc1cccc(C(=O)NCCc2nc3ccccc3n2CC(=O)Nc2ccc3c(c2)CCC3)c1` [Compound 21, N-(2-(1-(2-((2,3-dihydro-1H-inden-5-yl)amino)-2-oxoethyl)-1H-benzo[d]imidazol-2-yl)ethyl)-3-methylbenzamide]: above 50 µM. Regarding `O=C(Cn1c(CCNC(=O)c2cccc(Cl)c2)nc2ccccc21)Nc1ccc2c(c1)CCC2` [Compound 22, 3-chloro-N-(2-(1-(2-((2,3-dihydro-1H-inden-5-yl)amino)-2-oxoethyl)-1H-benzo[d]imidazol-2-yl)ethyl)benzamide], the IC50 is above 50 µM.

Regarding `O=C(Cn1c(CCNC(=O)c2ccccc2)nc2cc(Cl)ccc21)Nc1ccc2c(c1)CCC2` [Compound 23, N-(2-(5-chloro-1-(2-((2,3-dihydro-1H-inden-5-yl)amino)-2-oxoethyl) -1H-benzo[d]imidazol-2-yl)ethyl)benzamide], the half-maximal inhibitory concentration (IC50) was 1.3 ± 0.1 µM. Still for that read-out and setting: the same measure for `O=C(Cn1c(CCNC(=O)c2ccccc2)nc2ccc(Cl)cc21)Nc1ccc2c(c1)CCC2` [Compound 24, N-(2-(6-chloro-1-(2-((2,3-dihydro-1H-inden-5-yl)amino)-2-oxoethyl)-1H-benzo[d]imidazol-2-yl)ethyl)benzamide]: 4.2 ± 0.1 µM. On the same count and under the same terms, the same measure for `Cc1ccc2c(c1)nc(CCNC(=O)c1ccccc1)n2CC(=O)Nc1ccc2c(c1)CCC2` [Compound 25, N-(2-(1-(2-((2,3-dihydro-1H-inden-5-yl)amino)-2-oxoethyl)-5-methyl-1H-benzo[d]imidazol-2-yl)ethyl)benzamide]: 4.6 ± 1.9 µM; for `COc1ccc2c(c1)nc(CCNC(=O)c1ccccc1)n2CC(=O)Nc1ccc2c(c1)CCC2` [Compound 26, N-(2-(1-(2-((2,3-dihydro-1H-inden-5-yl)amino)-2-oxoethyl)-5-methoxy-1H-benzo[d]imidazol-2-yl)ethyl)benzamide]: above 50 µM.

Consider `COc1ccc2nc(CCNC(=O)c3ccccc3)n(CC(=O)Nc3ccc4c(c3)CCC4)c2c1` [Compound 27, N-(2-(1-(2-((2,3-dihydro-1H-inden-5-yl)amino)-2-oxoethyl)-6-methoxy-1H-benzo[d]imidazol-2-yl)ethyl)benzamide], for which the IC50 was above 50 µM. Still for that read-out and setting: next, `Cc1cccc2c1nc(CCNC(=O)c1ccccc1)n2CC(=O)Nc1ccc2c(c1)CCC2` [Compound 28, N-(2-(1-(2-((2,3-dihydro-1H-inden-5-yl)amino)-2-oxoethyl)-4-methyl-1H-benzo[d]imidazol-2-yl)ethyl)benzamide]: above 50 µM; `CN(CCc1nc2ccccc2n1CC(=O)N(C)c1ccc2c(c1)CCC2)C(=O)c1ccccc1` [Compound 30, N-(2-(1-(2-((2,3-dihydro-1H-inden-5-yl)(methyl)amino)-2-oxoethyl)-1H-benzo[d]imidazol-2-yl)ethyl)-N-methylbenzamide]: 17 ± 2 µM; `CN(C(=O)Cn1c(CCNC(=O)c2ccccc2)nc2ccccc21)c1ccc2c(c1)CCC2` [Compound 31, N-(2-(1-(2-((2,3-dihydro-1H-inden-5-yl)(methyl)amino)-2-oxoethyl)-1H-benzo[d]imidazol-2-yl)ethyl)benzamide]: 20 µM. As for `CN(CCc1nc2ccccc2n1CC(=O)Nc1ccc2ccccc2c1)C(=O)c1ccccc1` [Compound 32, N-methyl-N-(2-(1-(2-(naphthalen-2-ylamino)-2-oxoethyl)-1H-benzo[d]imidazol-2-yl)ethyl)benzamide], the IC50 came out at 0.2 ± 0.01 µM.

Regarding `CC(C)c1cccc(NC(=O)Cn2c(CCN(C)C(=O)c3ccccc3)nc3ccccc32)c1` [Compound 33, N-(2-(1-(2-((3-isopropylphenyl)amino)-2-oxoethyl)-1H-benzo[d]imidazol-2-yl)ethyl)-N-methylbenzamide], the IC50 is 0.3 ± 0.01 µM.

For `CN(CCc1nc2ccccc2n1CC(=O)Nc1ccc2sccc2c1)C(=O)c1ccccc1` [Compound 34, N-(2-(1-(2-(benzo[b]thiophen-5-ylamino)-2-oxoethyl)-1H-benzo[d]imidazol-2-yl)ethyl)-N-methylbenzamide], the IC50 worked out at 0.6 ± 0.1 µM.

Turning to `CN(CCc1nc2ccccc2n1CC(=O)Nc1ccc(Cl)c(Cl)c1)C(=O)c1ccccc1` [Compound 35, N-(2-(1-(2-((3,4-dichlorophenyl)amino)-2-oxoethyl)-1H-benzo[d]imidazol-2-yl)ethyl)-N-methylbenzamide], the IC50 turned out to be 0.9 ± 0.2 µM. On to `CN(CCc1nc2ccccc2n1CC(=O)Nc1ccc2occc2c1)C(=O)c1ccccc1` [Compound 36, N-(2-(1-(2-(benzofuran-5-ylamino)-2-oxoethyl)-1H-benzo[d]imidazol-2-yl)ethyl)-N-methylbenzamide], for which the IC50 came out at 1.3 µM. The same measure, in the same setting: the same measure for `Cc1ccc(NC(=O)Cn2c(CCN(C)C(=O)c3ccccc3)nc3ccccc32)cc1C` [Compound 37, N-(2-(1-(2-((3,4-dimethylphenyl)amino)-2-oxoethyl)-1H-benzo[d]imidazol-2-yl)ethyl)-N-methylbenzamide]: 1.6 ± 0.1 µM.
